Test results: patent US20150011423A1, “MEANS AND METHODS FOR ASSESSING KIDNEY TOXICITY” (BASF SE, priority 2011, published 2015)
Marks after values point to notes of the source that are not given here. Blank lines part the entries; values can stand above or below the compound they belong to.

System: rats
Test: 28-day repeated dose study in rats with mass spectrometry-based plasma metabolite profiling (GC-MS, LC-MS, SPE-LC-MS); treatment ratios versus control
Settings: plasma; for Choline plasmalogen No 02 (putative), treatment ratio versus control / Lyso PE (C22:0) (putative), treatment ratio versus control / Lysophosphatidylcholine (C17:0), treatment ratio versus control / TAG (C42:9) (DAG-Fragment) (putative), treatment ratio versus control: male rats, Table 11b alpha 2 u globulin-nephropathy; for Glycerol, lipid fraction, treatment ratio versus control / Linoleic acid (C18:cis[9,12]2), treatment ratio versus control / Lysophosphatidylcholine (C18:2), treatment ratio versus control / Phosphatidylcholine (C16:0, C16:0), treatment ratio versus control / Phosphatidylcholine (C16:0, C18:2), treatment ratio versus control / Phosphatidylcholine (C16:0, C20:5), treatment ratio versus control / Phosphatidylcholine (C16:1, C18:2), treatment ratio versus control / Phosphatidylcholine (C18:0, C18:1), treatment ratio versus control / Phosphatidylcholine (C18:1, C18:2), treatment ratio versus control / gamma-Linolenic acid (C18:cis[6,9,12]3), treatment ratio versus control / Arginine, treatment ratio versus control / Indole-3-lactic acid, treatment ratio versus control / Ketoleucine, treatment ratio versus control / Proline, treatment ratio versus control / Tryptophan, treatment ratio versus control / trans-4-Hydroxyproline, treatment ratio versus control: female rats; for Glycerol, lipid fraction, treatment ratio versus control / Linoleic acid (C18:cis[9,12]2), treatment ratio versus control / Lysophosphatidylcholine (C18:2), treatment ratio versus control / Phosphatidylcholine (C16:0, C16:0), treatment ratio versus control / Phosphatidylcholine (C16:0, C18:2), treatment ratio versus control / Phosphatidylcholine (C16:0, C20:5), treatment ratio versus control / Phosphatidylcholine (C16:1, C18:2), treatment ratio versus control / Phosphatidylcholine (C18:0, C18:1), treatment ratio versus control / Phosphatidylcholine (C18:1, C18:2), treatment ratio versus control / gamma-Linolenic acid (C18:cis[6,9,12]3), treatment ratio versus control: Table 4a inhibition of weak acid excretion; for Arginine, treatment ratio versus control / Indole-3-lactic acid, treatment ratio versus control / Ketoleucine, treatment ratio versus control / Proline, treatment ratio versus control / Tryptophan, treatment ratio versus control / trans-4-Hydroxyproline, treatment ratio versus control: Table 4b inhibition of weak acid excretion
[1] = day 7, high doses except for 1,1,2,2-tetrachloroethane
[2] = day 14, high doses except for 1,1,2,2-tetrachloroethane
[3] = day 28, high doses except for 1,1,2,2-tetrachloroethane

Description: A group of each 5 male and female rats was dosed once daily with the indicated compounds (see Table 9, below for compounds, applied doses and administration details) over 28 days.
Each dose group in the studies consisted of five rats per sex. Additional groups of each 5 male and female animals served as controls. Before starting the treatment period, animals, which were 62-64 days old when supplied, were acclimatized to the housing and environmental conditions for 7 days. All animals of the animal population were kept under the same constant temperature (20-24±3° C.) and the same constant humidity (30-70%). The animals of the animal population were fed ad libitum. The food to be used was essentially free of chemical or microbial contaminants. Drinking water was also offered ad libitum. […] The illumination period was 12 hours light followed by 12 hours darkness (12 hours light, from 6:00 to 18:00, and 12 hours darkness, from 18:00 to 6:00). […] The test substances (compounds in Table 9 were dosed and administered as described in the table above.
In the morning of day 7, 14, and 28, blood was taken from the retroorbital venous plexus from fasted anaesthetized animals. From each animal, 1 ml of blood was collected with EDTA as anticoagulant. The samples were centrifuged for generation of plasma. All plasma samples were covered with a N2 atmosphere and then stored at −80° C. until analysis.
For mass spectrometry-based metabolite profiling analyses plasma samples were extracted and a polar and a non-polar (lipid) fraction was obtained. For GC-MS analysis, the non-polar fraction was treated with methanol under acidic conditions to yield the fatty acid methyl esters. Both fractions were further derivatised with O-methyl-hydroxyamine hydrochloride and pyridine to convert Oxo-groups to O-methyloximes and subsequently with a silylating agent before analysis. In LC-MS analysis, both fractions were reconstituted in appropriate solvent mixtures. HPLC was performed by gradient elution on reversed phase separation columns.
Steroids and their metabolites were measured by online SPE-LC-MS (Solid phase extraction-LC-MS).
Following comprehensive analytical validation steps, the data for each analyte were normalized against data from pool samples. These samples were run in parallel through the whole process to account for process variability. The significance of treatment group values specific for sex, treatment duration and metabolite was determined by comparing means of the treated groups to the means of the respective untreated control groups using WELCH-test and quantified with treatment ratios versus control and p-values.

- 3-Hydroxyindole (ratio treated vs control) (m7: male rats, day 7): 1.92
- 4-Hydroxysphinganine (t18:0, Phytosphingosine), total (ratio treated vs control) (m7: male rats, day 7): 1.46
- Glucuronic acid (ratio treated vs control) (m7: male rats, day 7): 3.88
- Glutamate (ratio treated vs control) (m7: male rats, day 7): 1.57
- Nervonic acid (C24:cis[15]1) (ratio treated vs control) (m7: male rats, day 7): 1.60
- Oleic acid (C18:cis[9]1) (ratio treated vs control) (m7: male rats, day 7): 2.10
- Ornithine (ratio treated vs control) (m7: male rats, day 7): 1.12
- Pantothenic acid (ratio treated vs control) (m7: male rats, day 7): 2.59
- Phosphatidylcholine (C18:0, C18:1) (ratio treated vs control) (m7: male rats, day 7): 1.35
- Pseudouridine (ratio treated vs control) (m7: male rats, day 7): 1.23
- Sphingomyelin (d18:1, C16:0) (ratio treated vs control) (m7: male rats, day 7): 1.62
- Sphingomyelin (d18:2, C18:0) (ratio treated vs control) (m7: male rats, day 7): 1.35
- Xylitol (ratio treated vs control) (m7: male rats, day 7): 1.65
- dihomo-gamma-Linolenic acid (C20:cis[8,11,14]3) (ratio treated vs control) (m7: male rats, day 7): 2.42
- 3-Hydroxyindole (ratio treated vs control) (m14: male rats, day 14): 2.88
- 4-Hydroxysphinganine (t18:0, Phytosphingosine), total (ratio treated vs control) (m14: male rats, day 14): 1.34
- Glucuronic acid (ratio treated vs control) (m14: male rats, day 14): 3.87
- Glutamate (ratio treated vs control) (m14: male rats, day 14): 1.44
- Nervonic acid (C24:cis[15]1) (ratio treated vs control) (m14: male rats, day 14): 1.38
- Oleic acid (C18:cis[9]1) (ratio treated vs control) (m14: male rats, day 14): 2.37
- Ornithine (ratio treated vs control) (m14: male rats, day 14): 1.23
- Pantothenic acid (ratio treated vs control) (m14: male rats, day 14): 3.07
- Phosphatidylcholine (C18:0, C18:1) (ratio treated vs control) (m14: male rats, day 14): 1.34
- Pseudouridine (ratio treated vs control) (m14: male rats, day 14): 1.31
- Sphingomyelin (d18:1, C16:0) (ratio treated vs control) (m14: male rats, day 14): 1.59
- Sphingomyelin (d18:2, C18:0) (ratio treated vs control) (m14: male rats, day 14): 1.28
- Xylitol (ratio treated vs control) (m14: male rats, day 14): 1.33
- dihomo-gamma-Linolenic acid (C20:cis[8,11,14]3) (ratio treated vs control) (m14: male rats, day 14): 2.06
- 3-Hydroxyindole (ratio treated vs control) (m28: male rats, day 28): 2.30
- 4-Hydroxysphinganine (t18:0, Phytosphingosine), total (ratio treated vs control) (m28: male rats, day 28): 1.26
- Glucuronic acid (ratio treated vs control) (m28: male rats, day 28): 3.46
- Glutamate (ratio treated vs control) (m28: male rats, day 28): 1.74
- Nervonic acid (C24:cis[15]1) (ratio treated vs control) (m28: male rats, day 28): 1.22
- Oleic acid (C18:cis[9]1) (ratio treated vs control) (m28: male rats, day 28): 2.97
- Ornithine (ratio treated vs control) (m28: male rats, day 28): 1.23
- Pantothenic acid (ratio treated vs control) (m28: male rats, day 28): 3.03
- Phosphatidylcholine (C18:0, C18:1) (ratio treated vs control) (m28: male rats, day 28): 1.35
- Pseudouridine (ratio treated vs control) (m28: male rats, day 28): 1.28
- Sphingomyelin (d18:1, C16:0) (ratio treated vs control) (m28: male rats, day 28): 1.54
- Sphingomyelin (d18:2, C18:0) (ratio treated vs control) (m28: male rats, day 28): 1.23
- Xylitol (ratio treated vs control) (m28: male rats, day 28): 1.68
- dihomo-gamma-Linolenic acid (C20:cis[8,11,14]3) (ratio treated vs control) (m28: male rats, day 28): 2.77
- Choline plasmalogen No 02 (putative), treatment ratio versus control [1]: 0.72
- Lyso PE (C22:0) (putative), treatment ratio versus control [1]: 0.54
- Lysophosphatidylcholine (C17:0), treatment ratio versus control [1]: 0.72
- TAG (C42:9) (DAG-Fragment) (putative), treatment ratio versus control [1]: 0.67
- Choline plasmalogen No 02 (putative), treatment ratio versus control [2]: 0.73
- Lyso PE (C22:0) (putative), treatment ratio versus control [2]: 0.49
- Lysophosphatidylcholine (C17:0), treatment ratio versus control [2]: 0.73
- TAG (C42:9) (DAG-Fragment) (putative), treatment ratio versus control [2]: 0.64
- Choline plasmalogen No 02 (putative), treatment ratio versus control [3]: 0.81
- Lyso PE (C22:0) (putative), treatment ratio versus control [3]: 0.45
- Lysophosphatidylcholine (C17:0), treatment ratio versus control [3]: 0.80
- TAG (C42:9) (DAG-Fragment) (putative), treatment ratio versus control [3]: 0.76
Compound: CC(C)CC(C)(C)C [2,2,4-Trimethylpentane, 2,2,4-trimethylpentane]

Compound: Oc1c(Cl)c(Cl)c(Cl)c(Cl)c1Cl [Pentachlorophenol]
- Glycerol, lipid fraction, treatment ratio versus control (day 7, high dose): 1.56 *
- Linoleic acid (C18:cis[9,12]2), treatment ratio versus control (day 7, high dose): 1.35 *
- Lysophosphatidylcholine (C18:2), treatment ratio versus control (day 7, high dose): 1.32 *
- Phosphatidylcholine (C16:0, C16:0), treatment ratio versus control (day 7, high dose): 1.04^
- Phosphatidylcholine (C16:0, C18:2), treatment ratio versus control (day 7, high dose): 1.02^
- Phosphatidylcholine (C16:0, C20:5), treatment ratio versus control (day 7, high dose): 1.05 *
- Phosphatidylcholine (C16:1, C18:2), treatment ratio versus control (day 7, high dose): 0.87^
- Phosphatidylcholine (C18:0, C18:1), treatment ratio versus control (day 7, high dose): 0.98^
- Phosphatidylcholine (C18:1, C18:2), treatment ratio versus control (day 7, high dose): 0.85^
- gamma-Linolenic acid (C18:cis[6,9,12]3), treatment ratio versus control (day 7, high dose): 0.78 *
- Arginine, treatment ratio versus control (day 7, high dose): 0.56 *
- Indole-3-lactic acid, treatment ratio versus control (day 7, high dose): 0.62 *
- Ketoleucine, treatment ratio versus control (day 7, high dose): 0.6 *
- Proline, treatment ratio versus control (day 7, high dose): 0.73 *
- Tryptophan, treatment ratio versus control (day 7, high dose): 0.6 *
- trans-4-Hydroxyproline, treatment ratio versus control (day 7, high dose): 0.87 *
- Glycerol, lipid fraction, treatment ratio versus control (day 14, high dose): 2.38 *
- Linoleic acid (C18:cis[9,12]2), treatment ratio versus control (day 14, high dose): 1.8 *
- Lysophosphatidylcholine (C18:2), treatment ratio versus control (day 14, high dose): 1.41 *
- Phosphatidylcholine (C16:0, C16:0), treatment ratio versus control (day 14, high dose): 1.25 *
- Phosphatidylcholine (C16:0, C18:2), treatment ratio versus control (day 14, high dose): 1.34 *
- Phosphatidylcholine (C16:0, C20:5), treatment ratio versus control (day 14, high dose): 1.57 *
- Phosphatidylcholine (C16:1, C18:2), treatment ratio versus control (day 14, high dose): 1.32 *
- Phosphatidylcholine (C18:0, C18:1), treatment ratio versus control (day 14, high dose): 1.54 *
- Phosphatidylcholine (C18:1, C18:2), treatment ratio versus control (day 14, high dose): 1.4 *
- gamma-Linolenic acid (C18:cis[6,9,12]3), treatment ratio versus control (day 14, high dose): 1.81^
- Arginine, treatment ratio versus control (day 14, high dose): 0.72^
- Indole-3-lactic acid, treatment ratio versus control (day 14, high dose): 0.65 *
- Ketoleucine, treatment ratio versus control (day 14, high dose): 0.64 *
- Proline, treatment ratio versus control (day 14, high dose): 0.74 *
- Tryptophan, treatment ratio versus control (day 14, high dose): 0.62 *
- trans-4-Hydroxyproline, treatment ratio versus control (day 14, high dose): 0.92^
- Glycerol, lipid fraction, treatment ratio versus control (day 28, high dose): 1.61 *
- Linoleic acid (C18:cis[9,12]2), treatment ratio versus control (day 28, high dose): 1.73 *
- Lysophosphatidylcholine (C18:2), treatment ratio versus control (day 28, high dose): 1.66 *
- Phosphatidylcholine (C16:0, C16:0), treatment ratio versus control (day 28, high dose): 1.1 *
- Phosphatidylcholine (C16:0, C18:2), treatment ratio versus control (day 28, high dose): 1.49 *
- Phosphatidylcholine (C16:0, C20:5), treatment ratio versus control (day 28, high dose): 1.67 *
- Phosphatidylcholine (C16:1, C18:2), treatment ratio versus control (day 28, high dose): 1.54 *
- Phosphatidylcholine (C18:0, C18:1), treatment ratio versus control (day 28, high dose): 1.41 *
- Phosphatidylcholine (C18:1, C18:2), treatment ratio versus control (day 28, high dose): 1.3 *
- gamma-Linolenic acid (C18:cis[6,9,12]3), treatment ratio versus control (day 28, high dose): 3.23 *
- Arginine, treatment ratio versus control (day 28, high dose): 0.44 *
- Indole-3-lactic acid, treatment ratio versus control (day 28, high dose): 0.49 *
- Ketoleucine, treatment ratio versus control (day 28, high dose): 0.6 *
- Proline, treatment ratio versus control (day 28, high dose): 0.74 *
- Tryptophan, treatment ratio versus control (day 28, high dose): 0.54 *
- trans-4-Hydroxyproline, treatment ratio versus control (day 28, high dose): 0.94 *
